Reference: the NIST ThermoML archive (doi:10.1007/s10765-006-0018-5)
Numbers after ± are expanded uncertainties.

Experiments:
[1] = Liquid
[2] = refractive index (Na D-line) (dimensionless); details: 298.15 K; 101.33 kPa; Liquid; Standard Abbe refractometry

Row | vapor or sublimation pressure ([1]; 389.5 K) | Compound | vapor or sublimation pressure ([1]; 410 K) | refractive index [2]
1 |  | Cc1ccc(C)cc1 [1,4-dimethylbenzene] | 97.3 ± 1.6 kPa | 1.49325 ± 0.00075
2 | 97.3 ± 1.6 kPa | CCCCO [butan-1-ol] |  | 1.3973 ± 0.0008
